# Data as given in US10006044B2, “Soybean event SYHT04R and compositions and methods for detection thereof” (Syngenta Participations AG, priority 2010, dated 2018).
# Legend:
# Format in all cases: in vivo, Glycine max
# [1] = tested on: Soybean event SYHT04R; test: Yield of soybean event SYHT04R sprayed with mesotrione versus the event unsprayed; details: for average yield advantage versus unsprayed: SYHT04R in several elite soybean genotypes, additional replicated trials
# Experimental: This observation has been made during multiple seasons of replicated agronomic and efficacy trials conducted on the STYHT04R event in the genotype ‘Jack.’ In a representative study, SYHT04R was tested in twenty Midwestern locations.
# [2] = tested on: event SYHT04R; test: Herbicide tolerance performance of transgenic seeds and progeny plants; details: from a population of about 90 transformants
# Text: After plants became established in the soil and new growth appeared (˜1-2 weeks), plants were sampled and tested for the presence of desired transgene by TAQMAN® analysis using appropriate probes for the HPPD genes or promoters. Positive plants were transplanted into 4″ square pots containing Fafard #3 soil. Sierra 17-6-12 slow release fertilizer was incorporated into the soil at the recommended rate. The plants were then relocated into a standard greenhouse to acclimatize (˜1 week). The environmental conditions were: 27° C. day; 21° C. night; 14 hour photoperiod (with supplemental light); ambient humidity. After acclimatizing (˜1 week), the plants were sampled and tested in detail for the presence and copy number of inserted transgenes. Transgenic soybean plants were grown to maturity for T1 seed production. T1 plants were grown up, and after TAQMAN® analysis, homozygous plants were grown for seed production. Transgenic seeds and progeny plants were used to further evaluate their herbicide tolerance performance and molecular characteristics.
# [3] = tested on: non-transgenic soybean line Jack; test: Field efficacy: leaf injury after mesotrione treatment, control line; details: 210 g ai/ha mesotrione at V2/V3 stage, % of leaves showing injury, 9 US locations
# Experimental: (§1) SYH[…] soybean plants were tested for efficacy against mesotrione in 9 locations in the United States. The non-transgenic soybean line Jack was used as a control. […]
# [4] = tested on: SYHT04R soybean plants; test: Field efficacy: leaf injury after mesotrione treatment, event SYHT04R; details: line SYHT04R; 210 g ai/ha mesotrione at V2/V3 stage; % of leaves showing injury; 9 US locations
# Experimental: as §1
compound,measurement,setting,value
CS(=O)(=O)c1ccc(C(=O)C2C(=O)CCCC2=O)c([N+](=O)[O-])c1 [mesotrione],greater yield than the unsprayed event,"[1]; 2× application at early vegetative stage, separate study, ten locations",1.4 bushels per acre
same,greater yield than the unsprayed event,"[1]; 2× application at early vegetative stage, twenty Midwestern locations, genotype Jack",3.7 bushels per acre
same,greater yield than the unsprayed event,"[1]; 2× pre-emergence application, separate study, ten locations",3.1 bushels per acre
same,greater yield than the unsprayed event,"[1]; 2× pre-emergence application, twenty Midwestern locations, genotype Jack",4.9 bushels per acre
same,average yield advantage versus unsprayed,[1]; early post-emergence application,0.6 bushels per acre
same,average yield advantage versus unsprayed,[1]; pre-emergence application,1.1 bushels per acre
same,mesotrione tolerance of the event,[2],high level of mesotrione tolerance
same,% Injury 5-11 DAT,[3],57%
same,% Injury 14-21 DAT,[3],78%
same,% Injury 25-36 DAT,[3],72%
same,% Injury 5-11 DAT,[4],19%
same,% Injury 14-21 DAT,[4],10%
same,% Injury 25-36 DAT,[4],4%
